This note sets out measurements from patent US9877946B2, “Method for treating, managing, inhibiting, or preventing obesity” (RESEARCH & BUSINESS FOUNDATION SUNGKYUNKWAN UNIVERSITY, priority 2014, dated 2018).

Data set [1] concerns HFD obesity-induced C57BL6/J mice. Description: HFD obesity-induced mice, comparison with PBS-treated group. Type of data set: in vivo. The protocol:
To confirm an anti-obesity effect of butein, obesity was induced in C57BL6/J mice by HFD, and the mice were treated with butein through abdominal injection. 7-week-old mice were adjusted for 1 week, fed with HFD (60% fat, purchased from Research Diet) for 8 weeks to induce obesity, and butein was treated daily at 5 mg/kg and 15 mg/kg into two groups of mice, each group having 7 mice. As controls, a normal diet food intake group (5 mice) and a group fed with HFD and treated with PBS (7 mice) were used. Increases in body weight during the treatment period and weights of various organs were compared, and after 8 weeks, a glucose tolerance test (GTT) and an insulin tolerance test (ITT) were performed in combination with histological and hematological analyses.

The test system of data set [2] is T37i cells (brown fat precursor cells). The data set can be described thus: Brown adipocyte marker expression in differentiated T37i cells, real-time PCR. It counts as cell-based. The settings on record: butein 5, 10 and 20 μM, 6 days, FIG. 2. The protocol: To confirm an increase in number of brown adipocytes by butein treatment, brown fat precursor cells, T37i cells, were used. The T37i cells were cultured in a medium containing 5 μg/ml insulin and 1 nM triiodothyronine (T3) for 2 days, and then the differentiation into adipocytes using a medium containing 5 μg/ml insulin was induced for 6 to 8 days. The differentiation-induced adipocytes were treated with butein for 6 days by concentrations (5, 10 and 20 μM) and stained with Oil Red O, and then mRNA expression levels of PPARγ and aP2 related to the adipocyte differentiation and brown adipocyte markers, that is, UCP-1, PRDM16 and Cidea genes, were confirmed through real-time PCR.
On the technique in general: Quantitative PCR measures a nucleic acid by following its amplification.

For data set [3], the system named is HFD obesity-induced C57BL6/J mice. Description: HFD obesity-induced mice, comparison with resveratrol-treated group. The settings on record: for body weight compared to the control: 28-week-old mice. It counts as in vivo. As to the method: To confirm an anti-obesity effect of butein, obesity was induced to C57BL6/J mice by HFD, and changes in body weight according to butein treatment were confirmed. Specifically, 7-week-old mice were adjusted for 1 week, and fed with HFD (60% fat, purchased from Research Diet) for 12 weeks to induce obesity. Afterward, 30 mg/kg of butein was treated daily into 8 of the obesity-induced mice for 8 weeks. As controls, a PBS-treated group (7 mice) and a group (8 mice) treated with resveratrol, which is known to have an effect on preventing obesity, were used. After the 8-week treatment, increases in body weight were compared, and 8 weeks later, a GTT and a ITT were performed in combination with a hematological analysis.

Data set [4] relates to epididymal fat, subcutaneous fat and brown fat. The data set can be described thus: Marker expression in adipose tissues of mice treated for 14 days, real-time PCR. Type of data set: in vivo. The settings on record: 5 mg/kg abdominal injection, FIGS. 6 to 8. As to the method:
To examine activities of butein to increase the numbers of beige and brown adipocytes and inhibit white adipocytes in vivo, expression of markers in adipose tissues were measured after mice were treated with butein for 14 days. 6 mice were treated with 5 mg/kg of the butein through abdominal injection, and as a control, 6 mice were treated with only a solvent through abdominal injection. After 14 days, expression levels of markers for white fat and beige (brown) fat in epididymal fat, subcutaneous fat and brown fat were confirmed through real-time PCR.

Data set [5] concerns UCP-1 expression in MEF cells. Description: UCP-1 expression in MEF cells. Type of data set: cell-based, mouse. As to conditions: DMSO-treated control, FIG. 4. The text has this:
An increase in expression level of UCP-1 by butein treatment in C3H10T1/2 cells was compared to those by treatment of sulfuretin, fisetin, resveratrol and genistein, which are known as materials having an influence on adipocytes, and the increase in expression level of UCP-1 by butein treatment in MEF cells was compared to a DMSO-treated group as a control.

In data set [6] the test system is UCP-1 expression in C3H10T1/2 cells. Description: UCP-1 expression in differentiated C3H10T1/2 adipocytes, real-time PCR. It counts as cell-based, mouse. As to the method: Differentiated C3H10T1/2 adipocytes were treated with the butein and the derivatives for 24 hours, and the expression levels of UCP-1 and PRDM4 were investigated using real-time PCR.
In the next data set the test system is PRDM4 gene. The data set can be described thus: Microarray for gene inducing bioactivity of butein. It counts as cell-based.
Data set [7] relates to PRDM4 expression in C3H10T1/2 cells. Description: PRDM4 expression in differentiated C3H10T1/2 adipocytes, real-time PCR. Type of data set: cell-based, mouse. As to conditions: 24 hours, FIG. 25. As to the method:
To confirm an anti-obesity effect of the butein derivative, changes in expression levels of UCP-1 and PRDM4 by treatment of the butein derivative (Formulas 1-1 to 1-8 and 1-10 to 1-14) were measured. Differentiated C3H10T1/2 adipocytes were treated with the butein and the derivatives for 24 hours, and the expression levels of UCP-1 and PRDM4 were investigated using real-time PCR.

Setting [8] is: HFD 8 weeks, butein 5 and 15 mg/kg daily, vs HFD control.
The mark [9] stands for this setting: differentiated C3H10T1/2 adipocytes, 24 hours, FIG. 25.

Consider `O=C(/C=C/c1ccc(O)c(O)c1)c1ccc(O)cc1O` [Compound 1-1, butein], for which, in data set [1] (15 mg/kg of butein, 8 weeks), the “UCP-1, PRDM16, Cox8b, PGC-1α, CIDEA, COX7a and Dio2 specifically expressed in beige adipocytes” value is listed as “increased”; the “glucose-insulin metabolism (GTT and ITT)” value is “significantly improved”. In addition, in data set [1] (setting [8]), the body weight result was “tendency to concentration-dependent decreases”; the “weights of adipose tissues of livers and internal organs” value was “tendency to concentration-dependent decreases”. Further, in data set [1] (high dosage of butein), the “hematological analysis: glucose, cholesterol, neutral fat, HDL, LDL and a fatty acid” value is reported as “significant differences”. In data set [2], the “expression of Cidea” value is given as “increased”, the “expression of PRDM16” value is recorded as “increased” and the “expression of UCP-1” value is “increased”. Further, the “effect of decreasing body weight compared to the resveratrol-treated group” value in data set [3] (30 mg/kg daily for 8 weeks after 12 weeks HFD) is reported as “considerably excellent effect of decreasing a body weight”. The “decrease in body weight compared to the PBS-treated group” value in data set [3] (30 mg/kg daily for 8 weeks after 12 weeks HFD, FIG. 20) is given as “approximately 10%”. The “body weight compared to the control” value in data set [3] was “considerable decrease”. For the same molecule, in data set [3] (HFD-But group, FIG. 21), the “glucose-insulin metabolism (GTT and ITT)” value is “considerably improved”; the rectal temperature result is reported as “increased”. Moreover, in data set [3] (between three groups, FIG. 20C), the food intake result is “no differences”. Besides, in data set [4], the “adipocyte markers PPARγ and aP2” value is “decreases”; the “brown adipocyte markers UCP-1, PRDM16 Cox8b and Cidea” value is listed as “increases”; the “white adipocyte markers resistin and Nnmt” value is listed as “decreases”. In addition, in data set [5], the “expression of UCP-1 compared to the control” value is listed as “more than 10 times”. Further, the “expression of UCP-1 compared to sulfuretin, fisetin, resveratrol and genistein” value in data set [6] (C3H10T1/2 cells, FIG. 3) was “increased more than three times”. In addition, in data set [6] (butein 5, 10 and 20 μM, 24 hours, FIG. 1), the “expression of UCP-1” value is “the expression of UCP-1 increased”. Also, in data set [6] (setting [9]), the “expression level of UCP-1” value was “significant increases”. For the same molecule, the “expression level of UCP-1” value in data set [6] (differentiated C3H10T1/2 cells, 24 hours, FIG. 5) was “specifically and considerably increased”. Also, the PRDM4 gene expression result with PRDM4 gene was “increased in expression by more than approximately twice”. Moreover, the “expression level of PRDM4” value in data set [7] is recorded as “significant increases”.

Regarding `COc1cc(C2CC(=O)c3ccc(O)cc3O2)ccc1F` (stereo not drawn) [Compound 1-11, 2-(4-fluoro-3-methoxyphenyl)-7-hydroxychroman-4-one], the “expression level of UCP-1 compared to the butein-treated group (BFI)” value in data set [6] (setting [9]) is “considerably increased”. The “expression level of PRDM4 compared to the butein-treated group (BFI)” value in data set [7] is reported as “considerably increased”.

For `O=C(/C=C/c1ccc(O)c(O)c1)c1ccc(O)cc1` [Compound 1-12, (E)-3-(3,4-dihydroxyphenyl)-1-(4-hydroxyphenyl)prop-2-en-1-one], in data set [6] (setting [9]), the “expression level of UCP-1 compared to the butein-treated group (BFI)” value was “considerably increased”. In data set [7], the “expression level of PRDM4 compared to the butein-treated group (BFI)” value is reported as “considerably increased”.

Regarding `Oc1ccc(C=Cc2cc(O)cc(O)c2)cc1` [resveratrol, reference compound], the “body weight compared to the control” value in data set [3] was “no changes”. Further, the food intake entry in data set [3] (mouse, in vivo) was “no differences”.
